Experimental data: ChEMBL document CHEMBL1201862, “PubChem BioAssay data set” (2004)
The source made the active and inactive calls.

Assays:
[1] = biological target: Glyceraldehyde-3-phosphate dehydrogenase (Homo sapiens, UniProt P04406)
[2] = biological target: T1, Alkaline phosphatase, tissue-nonspecific isozyme (Homo sapiens, UniProt P05186); test: human TNAP enzyme inhibitors, SAR follow-up, biochemical, luminescent, dose response (AID 1056)
T1 sequence (P05186 whole entry): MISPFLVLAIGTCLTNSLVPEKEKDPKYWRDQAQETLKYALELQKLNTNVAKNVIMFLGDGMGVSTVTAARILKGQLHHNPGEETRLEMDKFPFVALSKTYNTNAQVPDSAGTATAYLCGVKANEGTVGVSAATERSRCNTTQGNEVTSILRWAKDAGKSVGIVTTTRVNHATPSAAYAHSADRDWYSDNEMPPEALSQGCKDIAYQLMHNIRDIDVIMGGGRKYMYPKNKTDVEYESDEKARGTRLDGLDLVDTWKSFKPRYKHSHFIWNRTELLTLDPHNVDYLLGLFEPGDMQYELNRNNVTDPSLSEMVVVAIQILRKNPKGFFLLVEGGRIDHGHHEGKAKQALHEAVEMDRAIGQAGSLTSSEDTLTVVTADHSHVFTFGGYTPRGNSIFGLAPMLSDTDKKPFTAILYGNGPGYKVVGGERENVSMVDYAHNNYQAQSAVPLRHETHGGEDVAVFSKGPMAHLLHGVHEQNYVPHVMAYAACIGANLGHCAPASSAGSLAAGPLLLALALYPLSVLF

[3] = biological target: T2, Hexokinase HKDC1 (Homo sapiens, UniProt Q2TB90); test: HKDC1 hexokinase activators, dose response, biochemical, W721R variant (AID 504730); type: functional
T2 sequence (Q2TB90 whole entry): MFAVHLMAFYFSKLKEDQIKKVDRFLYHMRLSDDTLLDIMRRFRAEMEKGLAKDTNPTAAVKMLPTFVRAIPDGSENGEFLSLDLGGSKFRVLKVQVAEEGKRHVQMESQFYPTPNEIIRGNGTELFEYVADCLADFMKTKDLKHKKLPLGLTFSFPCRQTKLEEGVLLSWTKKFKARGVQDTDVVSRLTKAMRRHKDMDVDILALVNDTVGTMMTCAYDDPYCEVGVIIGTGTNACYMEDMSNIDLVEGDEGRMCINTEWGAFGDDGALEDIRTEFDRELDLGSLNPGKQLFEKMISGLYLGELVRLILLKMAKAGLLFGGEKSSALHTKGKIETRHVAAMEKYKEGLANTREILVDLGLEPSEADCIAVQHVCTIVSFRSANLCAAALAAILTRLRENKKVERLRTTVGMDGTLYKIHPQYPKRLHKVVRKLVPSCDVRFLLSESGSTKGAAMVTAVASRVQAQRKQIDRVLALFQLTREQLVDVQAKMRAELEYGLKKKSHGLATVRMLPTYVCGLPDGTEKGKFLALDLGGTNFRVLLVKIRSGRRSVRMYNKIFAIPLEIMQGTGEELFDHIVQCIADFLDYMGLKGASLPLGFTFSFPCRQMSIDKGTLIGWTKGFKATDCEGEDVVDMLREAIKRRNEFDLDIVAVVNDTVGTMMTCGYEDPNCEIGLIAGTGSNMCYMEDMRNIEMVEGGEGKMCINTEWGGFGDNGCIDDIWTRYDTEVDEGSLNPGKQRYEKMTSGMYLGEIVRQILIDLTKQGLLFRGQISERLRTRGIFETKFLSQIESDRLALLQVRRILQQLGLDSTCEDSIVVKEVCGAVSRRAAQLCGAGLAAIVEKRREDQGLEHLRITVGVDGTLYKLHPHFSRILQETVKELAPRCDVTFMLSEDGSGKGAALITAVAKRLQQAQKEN

[4] = biological target: T3, Hexokinase-1 (Homo sapiens, UniProt P19367); test: hexokinase 1 activators, dose response, selectivity assay for HKDC1 activator project, biochemical (AID 504762); type: functional
T3 sequence (P19367 whole entry): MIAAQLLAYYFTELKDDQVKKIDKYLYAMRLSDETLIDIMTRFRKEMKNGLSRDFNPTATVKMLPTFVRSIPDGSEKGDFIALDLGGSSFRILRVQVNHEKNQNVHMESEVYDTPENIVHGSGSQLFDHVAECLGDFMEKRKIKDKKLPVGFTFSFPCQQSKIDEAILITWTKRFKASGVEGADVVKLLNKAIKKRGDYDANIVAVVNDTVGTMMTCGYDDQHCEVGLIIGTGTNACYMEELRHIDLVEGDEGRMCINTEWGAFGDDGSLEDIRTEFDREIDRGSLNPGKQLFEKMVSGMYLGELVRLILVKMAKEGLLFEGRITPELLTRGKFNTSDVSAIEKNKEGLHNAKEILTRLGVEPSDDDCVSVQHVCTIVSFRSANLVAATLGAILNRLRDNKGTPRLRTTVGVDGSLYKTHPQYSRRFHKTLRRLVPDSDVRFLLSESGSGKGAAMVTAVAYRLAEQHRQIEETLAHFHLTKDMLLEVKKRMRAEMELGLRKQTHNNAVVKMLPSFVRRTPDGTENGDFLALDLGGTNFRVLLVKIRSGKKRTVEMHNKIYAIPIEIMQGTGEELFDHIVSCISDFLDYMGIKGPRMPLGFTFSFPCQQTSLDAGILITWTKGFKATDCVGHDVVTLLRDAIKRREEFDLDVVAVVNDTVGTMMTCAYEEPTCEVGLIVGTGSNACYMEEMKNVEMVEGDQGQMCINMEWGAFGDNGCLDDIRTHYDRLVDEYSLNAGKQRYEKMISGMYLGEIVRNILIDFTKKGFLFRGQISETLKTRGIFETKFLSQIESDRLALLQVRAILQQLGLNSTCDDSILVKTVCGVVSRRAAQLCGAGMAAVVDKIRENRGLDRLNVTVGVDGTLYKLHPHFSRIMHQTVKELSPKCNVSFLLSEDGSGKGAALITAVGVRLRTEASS

[5] = biological target: Ion channel NompC (Danio rerio, UniProt Q7T1G6); test: Dose response cell-based high-throughput screening assay for agonists of the transient receptor potential channel N1 (TRPN1). [Related pubchem assays (depositor defined):AID1424, AID1448]; type: functional
Ion channel NompC, sequence (Q7T1G6 whole entry): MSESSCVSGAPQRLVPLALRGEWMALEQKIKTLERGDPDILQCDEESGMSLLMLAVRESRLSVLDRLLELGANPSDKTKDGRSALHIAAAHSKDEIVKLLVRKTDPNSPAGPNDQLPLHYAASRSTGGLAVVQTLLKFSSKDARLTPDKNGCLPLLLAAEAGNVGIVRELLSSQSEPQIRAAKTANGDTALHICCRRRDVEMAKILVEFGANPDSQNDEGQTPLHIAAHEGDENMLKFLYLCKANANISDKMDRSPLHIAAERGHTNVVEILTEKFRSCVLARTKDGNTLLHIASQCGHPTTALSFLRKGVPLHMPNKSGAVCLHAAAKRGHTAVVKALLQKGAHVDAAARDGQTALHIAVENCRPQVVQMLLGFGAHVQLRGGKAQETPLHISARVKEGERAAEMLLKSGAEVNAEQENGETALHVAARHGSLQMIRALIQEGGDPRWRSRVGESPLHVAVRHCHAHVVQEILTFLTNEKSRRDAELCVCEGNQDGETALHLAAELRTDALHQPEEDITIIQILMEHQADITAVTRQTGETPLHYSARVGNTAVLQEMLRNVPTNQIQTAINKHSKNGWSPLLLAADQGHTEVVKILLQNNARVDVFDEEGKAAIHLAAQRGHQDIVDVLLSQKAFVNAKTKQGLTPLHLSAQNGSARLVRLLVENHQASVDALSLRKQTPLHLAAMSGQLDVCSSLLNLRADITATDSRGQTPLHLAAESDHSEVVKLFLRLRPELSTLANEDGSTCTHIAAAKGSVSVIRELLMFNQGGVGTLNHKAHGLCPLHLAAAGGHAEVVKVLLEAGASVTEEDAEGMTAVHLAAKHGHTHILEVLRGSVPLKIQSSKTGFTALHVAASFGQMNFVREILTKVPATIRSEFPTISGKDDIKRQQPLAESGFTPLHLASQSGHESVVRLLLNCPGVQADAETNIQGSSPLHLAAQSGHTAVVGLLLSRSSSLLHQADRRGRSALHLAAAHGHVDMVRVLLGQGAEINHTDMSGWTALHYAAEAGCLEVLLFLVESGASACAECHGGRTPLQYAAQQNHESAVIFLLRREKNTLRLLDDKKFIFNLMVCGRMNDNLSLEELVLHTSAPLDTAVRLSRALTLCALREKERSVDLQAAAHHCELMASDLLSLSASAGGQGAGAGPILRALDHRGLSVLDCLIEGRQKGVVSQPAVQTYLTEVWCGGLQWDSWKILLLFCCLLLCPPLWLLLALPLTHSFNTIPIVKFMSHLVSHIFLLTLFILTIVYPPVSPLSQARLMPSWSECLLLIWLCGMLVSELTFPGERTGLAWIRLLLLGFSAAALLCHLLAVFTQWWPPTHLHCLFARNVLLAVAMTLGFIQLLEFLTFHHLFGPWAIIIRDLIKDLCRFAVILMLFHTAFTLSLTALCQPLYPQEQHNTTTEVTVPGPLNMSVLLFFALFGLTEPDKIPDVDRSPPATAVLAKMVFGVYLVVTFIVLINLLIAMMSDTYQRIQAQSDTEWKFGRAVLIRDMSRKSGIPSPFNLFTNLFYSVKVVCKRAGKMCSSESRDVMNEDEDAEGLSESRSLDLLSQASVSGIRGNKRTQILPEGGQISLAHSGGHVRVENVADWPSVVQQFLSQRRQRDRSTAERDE

[6] = biological target: T4, Mucolipin-3 (Homo sapiens, UniProt Q8TDD5); test: Fluorescence counterscreen assay for […] agonists: dose response cell-based high-throughput screening assay to identify agonists of the transient receptor potential channel ML3 (TRPML3). [Related pubchem assays: 1424, 1448 ]; type: functional
T4 sequence (Q8TDD5 whole entry): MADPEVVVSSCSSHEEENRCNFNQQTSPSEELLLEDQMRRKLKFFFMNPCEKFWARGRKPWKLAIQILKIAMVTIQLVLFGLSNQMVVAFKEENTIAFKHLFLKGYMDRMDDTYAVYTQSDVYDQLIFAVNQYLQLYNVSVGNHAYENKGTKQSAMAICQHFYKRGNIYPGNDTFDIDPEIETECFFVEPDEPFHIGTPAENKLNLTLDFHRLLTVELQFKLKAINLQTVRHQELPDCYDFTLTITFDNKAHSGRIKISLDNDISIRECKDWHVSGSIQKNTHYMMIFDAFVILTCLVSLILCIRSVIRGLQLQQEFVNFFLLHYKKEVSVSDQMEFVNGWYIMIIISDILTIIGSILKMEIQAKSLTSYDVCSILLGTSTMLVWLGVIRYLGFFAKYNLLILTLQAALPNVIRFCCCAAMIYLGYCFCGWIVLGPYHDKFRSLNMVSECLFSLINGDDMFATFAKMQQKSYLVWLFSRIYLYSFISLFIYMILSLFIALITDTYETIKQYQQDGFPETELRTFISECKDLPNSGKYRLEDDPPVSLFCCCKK

[7] = biological target: T5, Dual specificity protein phosphatase 3 (Homo sapiens, UniProt P51452); test: SAR VHR1 absorbance Assay for In Vitro dose response studies. [Related pubchem assays (depositor defined):AID1654, AID1661, AID1878, AID1992, AID2004]
T5 sequence (P51452 whole entry): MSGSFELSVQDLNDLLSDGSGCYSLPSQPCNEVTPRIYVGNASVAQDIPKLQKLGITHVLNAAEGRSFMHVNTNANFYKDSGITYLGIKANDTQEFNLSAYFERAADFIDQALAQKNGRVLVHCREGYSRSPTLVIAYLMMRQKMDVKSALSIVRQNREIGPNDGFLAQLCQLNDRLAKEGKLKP

[8] = biological target: T5, Dual specificity protein phosphatase 3; test: SAR VHR1 Fluorescent Assay for In Vitro dose response studies. [Related pubchem assays (depositor defined):AID1654, AID1661, AID1878, AID1992, AID2004, AID2070, AID2085]; type: functional
[9] = biological target: T6, Tyrosine-protein phosphatase non-receptor type 7 (Homo sapiens, UniProt P35236); test: redox-dependent HePTP inhibition, mechanism study, biochemical, fluorescence (AID 2068); type: functional
T6 sequence (P35236 whole entry): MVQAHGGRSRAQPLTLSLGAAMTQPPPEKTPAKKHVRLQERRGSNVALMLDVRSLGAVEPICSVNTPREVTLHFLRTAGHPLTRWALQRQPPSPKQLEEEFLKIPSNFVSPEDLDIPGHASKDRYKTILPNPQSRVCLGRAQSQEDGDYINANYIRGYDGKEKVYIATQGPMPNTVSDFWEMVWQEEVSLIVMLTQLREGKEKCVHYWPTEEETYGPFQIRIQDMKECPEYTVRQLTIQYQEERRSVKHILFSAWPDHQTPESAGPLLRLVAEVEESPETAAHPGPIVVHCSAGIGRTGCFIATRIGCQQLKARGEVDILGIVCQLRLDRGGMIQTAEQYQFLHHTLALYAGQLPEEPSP

[10] = biological target: T5, Dual specificity protein phosphatase 3; test: SAR VHR1 Fluorescent Assay for In Vitro dose response studies Set 2. [Related pubchem assays (depositor defined):AID1654, AID1661, AID1878]; type: functional
[11] = biological target: T7, Dual specificity protein phosphatase 6 (Rattus norvegicus, UniProt Q64346); type: functional;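 also: confirmatory in vitro dose-response testing of MKP-3 inhibition; recombinant His-tagged MKP-3 made in E. coli BL21 with OMFP substrate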
T7 sequence (Q64346 whole entry): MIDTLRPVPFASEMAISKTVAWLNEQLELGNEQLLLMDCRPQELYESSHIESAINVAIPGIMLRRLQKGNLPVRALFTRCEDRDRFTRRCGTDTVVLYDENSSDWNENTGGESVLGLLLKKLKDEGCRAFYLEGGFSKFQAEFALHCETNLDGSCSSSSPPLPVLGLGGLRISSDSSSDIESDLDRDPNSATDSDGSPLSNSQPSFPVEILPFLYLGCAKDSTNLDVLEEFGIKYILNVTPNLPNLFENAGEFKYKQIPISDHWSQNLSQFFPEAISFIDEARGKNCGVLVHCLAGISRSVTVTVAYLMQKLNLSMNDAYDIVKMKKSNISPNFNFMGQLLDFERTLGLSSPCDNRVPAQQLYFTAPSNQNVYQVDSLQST

[12] = biological target: T8, Intestinal-type alkaline phosphatase (Homo sapiens, UniProt P09923); test: Dose Response confirmation of uHTS hits from a small molecule inhibitors of human intestinal alkaline phosphatase via a luminescent assay. [Related pubchem assays (depositor defined):AID2544, AID2574]; type: functional
T8 sequence (P09923 whole entry): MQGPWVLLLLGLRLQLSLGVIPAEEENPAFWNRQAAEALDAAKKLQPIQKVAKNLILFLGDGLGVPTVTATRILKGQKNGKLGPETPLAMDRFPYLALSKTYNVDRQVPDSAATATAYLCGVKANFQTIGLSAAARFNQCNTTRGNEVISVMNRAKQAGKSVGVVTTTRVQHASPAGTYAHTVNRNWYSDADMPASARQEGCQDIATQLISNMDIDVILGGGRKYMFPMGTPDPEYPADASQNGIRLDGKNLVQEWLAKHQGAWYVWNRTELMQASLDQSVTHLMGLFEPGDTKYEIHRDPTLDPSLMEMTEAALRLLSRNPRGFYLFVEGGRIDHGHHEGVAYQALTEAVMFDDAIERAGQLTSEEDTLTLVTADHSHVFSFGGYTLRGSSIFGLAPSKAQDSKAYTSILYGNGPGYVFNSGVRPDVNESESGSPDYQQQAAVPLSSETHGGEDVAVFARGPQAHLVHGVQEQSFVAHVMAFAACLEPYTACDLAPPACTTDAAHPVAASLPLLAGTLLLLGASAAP

[13] = biological target: T8, Intestinal-type alkaline phosphatase; test: human intestinal alkaline phosphatase activators, dose response, biochemical, luminescence, uHTS hits (AID 463120); type: functional
[14] = inhibitors of intracellular T. cruzi replication, confirmation, NIH3T3 host cells, beta-gal luminescence (AID 2044); type: functional, cell-based;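 also: intracellular parasites grown in NIH/3T3 mouse fibroblasts as host cells; luminescent beta-galactosidase reporter signal from transgenic T. cruzi replicating inside host cells; inhibitors lower the luminescence signal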
[15] = cytotoxicity toward NIH3T3 fibroblasts, dose response, counter-screen, cell-based, ATP luminescence, mouse fibroblasts (AID 2010); type: functional;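 also: cells exposed to compound for about 90 hours before reading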
[16] = biological target: Induced myeloid leukemia cell differentiation protein Mcl-1 (Homo sapiens, UniProt Q07820); type: functional
Induced myeloid leukemia cell differentiation protein Mcl-1, sequence (Q07820 whole entry): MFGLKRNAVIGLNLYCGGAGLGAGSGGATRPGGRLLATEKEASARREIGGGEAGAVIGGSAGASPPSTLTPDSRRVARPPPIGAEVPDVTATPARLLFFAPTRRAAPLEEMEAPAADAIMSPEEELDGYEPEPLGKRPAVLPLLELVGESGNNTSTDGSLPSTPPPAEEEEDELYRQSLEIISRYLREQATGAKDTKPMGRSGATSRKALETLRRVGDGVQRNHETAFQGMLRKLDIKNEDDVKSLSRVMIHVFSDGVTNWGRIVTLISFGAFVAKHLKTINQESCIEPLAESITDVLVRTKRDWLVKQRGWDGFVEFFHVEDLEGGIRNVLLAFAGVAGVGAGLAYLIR

[17] = Luminescence Cell-Based Dose Retest to Confirm Inhibitors of Cancer Stem Cells. [Related pubchem assays (depositor defined):AID2717, AID2721]; type: functional; conditions: Homo sapiens
[18] = biological target: DNA damage-inducible transcript 3 protein (Mus musculus, UniProt P35639); type: functional, Cricetulus griseus
DNA damage-inducible transcript 3 protein, sequence (P35639 whole entry): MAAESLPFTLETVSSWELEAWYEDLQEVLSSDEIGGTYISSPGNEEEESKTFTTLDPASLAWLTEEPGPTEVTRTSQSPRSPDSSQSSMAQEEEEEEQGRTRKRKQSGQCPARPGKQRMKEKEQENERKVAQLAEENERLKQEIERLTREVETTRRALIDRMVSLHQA

[19] = biological target: T9, Cysteine protease ATG4B (Homo sapiens, UniProt Q9Y4P1); type: functional;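 also: Fluorescence-based dose-response confirmation assay measuring inhibition of ATG4B activity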
T9 sequence (Q9Y4P1 whole entry): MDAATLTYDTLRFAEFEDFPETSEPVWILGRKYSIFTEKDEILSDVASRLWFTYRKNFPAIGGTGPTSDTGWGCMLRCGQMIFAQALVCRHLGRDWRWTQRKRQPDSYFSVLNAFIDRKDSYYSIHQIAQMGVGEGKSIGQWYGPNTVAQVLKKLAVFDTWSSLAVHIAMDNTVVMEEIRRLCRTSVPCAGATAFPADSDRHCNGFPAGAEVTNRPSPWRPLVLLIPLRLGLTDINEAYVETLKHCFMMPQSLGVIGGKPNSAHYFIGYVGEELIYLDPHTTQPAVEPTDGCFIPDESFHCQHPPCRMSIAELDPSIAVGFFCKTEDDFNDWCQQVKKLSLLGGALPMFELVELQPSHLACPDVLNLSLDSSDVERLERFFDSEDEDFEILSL

[20] = biological target: Phospholipase A2 (Homo sapiens, UniProt P04054); type: functional;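 also: confirmatory dose-response counterscreen on phospholipase A2, testing hits that came from an ultra-high-throughput screen for ATG4B inhibitors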
Phospholipase A2, sequence (P04054 whole entry): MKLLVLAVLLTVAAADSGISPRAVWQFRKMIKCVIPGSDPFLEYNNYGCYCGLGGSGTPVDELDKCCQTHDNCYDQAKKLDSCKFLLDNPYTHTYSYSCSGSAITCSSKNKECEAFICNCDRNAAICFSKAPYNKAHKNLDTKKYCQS

[21] = system: INS1; test: beta cell apoptosis inhibitors, cytokine rescue, dose response, luminescence, retest (AID 449756); type: functional, cell-based; conditions: Rattus norvegicus;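 also: cell death triggered by IL-1 beta plus TNF-alpha plus IFN-gamma mixture; protective hits raise ATP signal compared with cytokine alone wells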

Glyceraldehyde-3-phosphate dehydrogenase, sequence (P04406 whole entry): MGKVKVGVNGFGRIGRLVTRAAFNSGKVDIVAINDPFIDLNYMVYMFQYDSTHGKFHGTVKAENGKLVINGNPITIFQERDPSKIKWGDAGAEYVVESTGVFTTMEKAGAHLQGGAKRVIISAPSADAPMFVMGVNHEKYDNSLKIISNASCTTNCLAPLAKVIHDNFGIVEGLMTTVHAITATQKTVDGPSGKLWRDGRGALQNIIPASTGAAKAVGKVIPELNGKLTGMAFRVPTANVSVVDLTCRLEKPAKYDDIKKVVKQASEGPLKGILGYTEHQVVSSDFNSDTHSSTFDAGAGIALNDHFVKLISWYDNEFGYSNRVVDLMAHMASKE

O=S(=O)(Nc1cnc2ccccc2c1)c1ccc(F)cc1
IC50 [1]: > 100 µM (not active) | IC50 [2]: > 100 µM (inactive)

CC1(C)C(=O)Nc2ccccc2N1C(=O)COC(=O)c1cc(Cl)cc(Cl)c1
EC50 [3]: 49.1 µM (inactive) | EC50 [4]: 65.2 µM (inactive)

CCOC(=O)C1CN(S(=O)(=O)c2ccc(C)cc2)CCN1S(=O)(=O)c1ccc(C)cc1 (stereo unspecified)
EC50 [5]: > 29.9 µM (inactive) | EC50 [6]: > 29.9 µM (not active)

CNS(=O)(=O)c1cccc(C(=O)NC2CCSc3ccccc32)c1 (stereo unspecified)
IC50 [7]: > 100 µM (inactive) | IC50 [8]: > 100 µM (inactive) | IC50 [9]: > 100 µM (inactive) | IC50 [10]: > 100 µM (inactive) | IC50 [11]: > 100 µM (inactive)

CN(Cc1ccccc1)C(=O)Nc1ccc(Cl)cc1
IC50 [12]: > 100 µM (inactive) | EC50 [13]: > 100 µM (inactive)

Cc1ccccc1/C=N/Nc1ccnc2cc(Cl)ccc12
EC50 [14]: 1.07 µM (active) | EC50 [15]: > 60 µM (not active) | IC50 [16]: 5.13 µM (active) | AC50 [17]: 3.62 µM (active) | Absolute IC50 (CHOP) [18]: 10 µM | IC50 [19]: 14.7 µM (active) | IC50 [20]: 11.4 µM (active) | AC50 [21]: 5.39 µM (active)
